According to patent publication US10407431B2, “Compounds and compositions as toll-like receptor 7 agonists” (NOVARTIS AG, priority 2014, dated 2019):

Molecular target: human TLR7 (Homo sapiens (Human), UniProt Q9NYK1)
Test: Reporter Gene Assay (HEK293 stably transfected with human TLR7 and NF-kB-driven luciferase reporter)
Type: cell-based
Conditions: HEK293 cells stably transfected with human TLR7 and pNifty-Luciferase; 7 hours incubation; EC50 relative to the activity of resiquimod set to 100%
Experimental: As a control assay, normal Hek293 transfected with pNifty-Luc were used. […] Bright-Glo™ Luciferase assay buffer and substrate were supplied by Promega #E263B and #E264B (assay substrate and buffer respectively). 384 well clear-bottom plates were supplied by Greiner bio-one (#789163-G) and were custom bar-coded plates.
Cells were plated at 25,000 cells/well in 384-well plates in a final volume of 50 μl of media. Cells were allowed to adhere to the plates after overnight (18 hours) culture at 37° C. and 5% CO2. Serially diluted experimental and positive control compounds were then dispensed to each well and incubated for 7 hours at 37° C. and 5% CO2. Cells stimulated with DMSO alone also serve as negative controls. After the incubation, 30 μl of the pre-mix assay buffer and substrate buffer were added to each well according to manufacturer's instructions. The luminescence signal was read on a CLIPR machine with an integration time of 20 seconds per plate.

Sequence of human TLR7 (Q9NYK1 27-1049): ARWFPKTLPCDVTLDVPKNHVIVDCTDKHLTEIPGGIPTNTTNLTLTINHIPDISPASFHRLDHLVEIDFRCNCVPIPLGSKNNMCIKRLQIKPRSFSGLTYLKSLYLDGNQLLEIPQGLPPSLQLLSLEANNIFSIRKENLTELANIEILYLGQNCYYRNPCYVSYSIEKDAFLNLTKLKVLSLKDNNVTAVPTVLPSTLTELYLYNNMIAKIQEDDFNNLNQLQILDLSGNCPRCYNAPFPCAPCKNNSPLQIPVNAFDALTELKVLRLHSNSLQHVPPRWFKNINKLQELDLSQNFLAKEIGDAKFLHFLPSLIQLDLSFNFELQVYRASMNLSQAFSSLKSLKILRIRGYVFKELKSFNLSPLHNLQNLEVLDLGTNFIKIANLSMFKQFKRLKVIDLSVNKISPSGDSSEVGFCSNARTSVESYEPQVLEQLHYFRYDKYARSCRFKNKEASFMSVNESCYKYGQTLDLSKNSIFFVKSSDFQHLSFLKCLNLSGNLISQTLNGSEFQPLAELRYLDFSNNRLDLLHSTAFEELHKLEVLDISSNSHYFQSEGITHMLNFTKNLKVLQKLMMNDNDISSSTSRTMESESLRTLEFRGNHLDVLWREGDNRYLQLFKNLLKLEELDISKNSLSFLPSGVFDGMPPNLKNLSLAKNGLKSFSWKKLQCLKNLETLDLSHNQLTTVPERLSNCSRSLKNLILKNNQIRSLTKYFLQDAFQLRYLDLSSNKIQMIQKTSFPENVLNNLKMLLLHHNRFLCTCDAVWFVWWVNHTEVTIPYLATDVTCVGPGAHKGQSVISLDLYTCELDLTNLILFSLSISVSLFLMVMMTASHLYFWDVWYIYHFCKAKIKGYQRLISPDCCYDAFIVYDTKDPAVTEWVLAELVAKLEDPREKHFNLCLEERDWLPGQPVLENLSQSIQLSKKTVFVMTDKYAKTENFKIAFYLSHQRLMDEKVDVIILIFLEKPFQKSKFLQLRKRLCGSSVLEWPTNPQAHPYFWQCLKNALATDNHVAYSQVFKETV

| SMILES | EC50 [µM] |
| --- | --- |
| CCCC[C@@H](CO)Nc1nc(N)nc2ccn(Cc3ccc(CN4CCNCC4)cc3OC)c12 [Example 33, (S)-2-((2-amino-5-(2-methoxy-4-(piperazin-1-ylmethyl)benzyl)-5H-pyrrolo[3,2-d]pyrimidin-4-yl)amino)hexan-1-ol] | 0.007 |
| CCCCCNc1nc(N)nc2ccn(Cc3cc(N)ccc3OC)c12 [Example 34, 5-(5-amino-2-methoxybenzyl)-N4-pentyl-5H-pyrrolo[3,2-d]pyrimidine-2,4-diamine] | 0.001 |
